We go through 32 molecules from ChEMBL document CHEMBL3992533, “α-Ketothioamide Derivatives: A Promising Tool to Interrogate Phosphoglycerate Dehydrogenase (PHGDH)” (J Med Chem, 2017).

Molecules are shown by their SMILES. Active and inactive are the calls of the source. The calls are words filed in the database; no cut-off is given here.

Experiment [1] has as its target T1, D-3-phosphoglycerate dehydrogenase (Homo sapiens, UniProt O43175).
T1 sequence (O43175 whole entry): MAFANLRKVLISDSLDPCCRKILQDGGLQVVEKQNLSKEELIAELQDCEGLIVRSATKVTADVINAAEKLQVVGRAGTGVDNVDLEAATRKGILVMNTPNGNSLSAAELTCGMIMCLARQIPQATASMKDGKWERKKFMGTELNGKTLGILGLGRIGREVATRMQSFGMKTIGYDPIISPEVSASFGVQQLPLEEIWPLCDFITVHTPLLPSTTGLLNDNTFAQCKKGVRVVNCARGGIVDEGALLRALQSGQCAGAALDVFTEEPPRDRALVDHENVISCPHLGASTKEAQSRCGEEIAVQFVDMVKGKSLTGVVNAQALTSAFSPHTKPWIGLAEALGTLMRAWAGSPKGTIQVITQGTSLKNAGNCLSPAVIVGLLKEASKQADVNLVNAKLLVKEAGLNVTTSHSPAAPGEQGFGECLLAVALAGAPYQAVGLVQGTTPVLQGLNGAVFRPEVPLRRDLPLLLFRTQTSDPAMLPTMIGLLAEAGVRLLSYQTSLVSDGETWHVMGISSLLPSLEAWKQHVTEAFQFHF
Put plainly: Inhibition of recombinant human C-terminal His-tagged PHGDH (1 to 533 residues) expressed in Escherichia coli assessed as reduction in NADH formation using 3-phosphoglycerate as substrate in presence of NAD+ by resorufin fluorescence based PSAT1/diaphorase/PSPH coupled enzyme assay.

In experiment [2] the target is T2, D-3-phosphoglycerate dehydrogenase (Homo sapiens) (UniProt O43175).
T2 sequence (whole entry): T1 sequence (O43175 whole entry)
Description: Inhibition of recombinant human C-terminal His-tagged PHGDH (1 to 533 residues) expressed in Escherichia coli assessed as reduction in NADH formation at 100 uM using 3-phosphoglycerate as substrate preincubated measured for 7 mins in presence of NAD+ by spectrophotometric method relative to control.

The target in experiment [3] is T2, D-3-phosphoglycerate dehydrogenase (Homo sapiens). Put plainly: Ratio of IC50 for inhibition of PHGDH in human HL60 cells assessed as reduction in cell viability in serine repleted medium to IC50 for inhibition of PHGDH in human HL60 cells assessed as reduction in cell viability in serine depleted medium. The class given is cell-based.
The target is the same in experiment [4]. Put plainly: Ratio of IC50 for inhibition of PHGDH in human SiHa cells assessed as reduction in cell viability in serine repleted medium to IC50 for inhibition of PHGDH in human SiHa cells assessed as reduction in cell viability in serine depleted medium. Type of experiment: cell-based.
In a further experiment the test system is MDA-MB-231. Put plainly: Cytotoxicity against PHGDH deficient human MDA-MB-231 cells assessed as reduction in cell viability after 5 days by presto blue assay. Conditions: MDA-MB-231, 120 h. Type of experiment: functional, cell-based.
A further experiment deals with HL-60. Description: Cytotoxicity against PHGDH knockout human HL60 cells assessed as reduction in cell viability after 5 days by presto blue assay. The note with it: HL-60, 120 h. Type of experiment: functional, cell-based.
Experiment [5] deals with T1, D-3-phosphoglycerate dehydrogenase. Put plainly: Non-competitive inhibition of recombinant human C-terminal His-tagged PHGDH (1 to 533 residues) expressed in Escherichia coli assessed as reduction in NADH formation preincubated for 30 mins followed by varying levels of 3-phosphoglycerate substrate addition in presence of constant NAD+ concentration by resorufin fluorescence based PSAT1/diaphorase/PSPH coupled enzyme assay.

For experiment [6] the target is unchanged. Description: Non-competitive inhibition of recombinant human C-terminal His-tagged PHGDH (1 to 533 residues) expressed in Escherichia coli assessed as reduction in NADH formation preincubated for 30 mins followed by constant concentration of 3-phosphoglycerate substrate addition in presence of varying levels of NAD+ by resorufin fluorescence based PSAT1/diaphorase/PSPH coupled enzyme assay.

Experiment [7] deals with T2, D-3-phosphoglycerate dehydrogenase (Homo sapiens). Conditions: 160 uM.

What is called IC50 is the concentration that gives 50% inhibition. `O=C(C(=S)N1CCOCC1)c1ccccc1[N+](=O)[O-]`: the IC50 in experiment [1] is over 200 µM.

As usually defined, the inhibition is how much of the control response was suppressed. With `S=C(Nc1ccccc1)NC1CCCCC1`, the inhibition in experiment [2] was found to be 28%.

In the case of `O=C(C(=S)N1CCOCC1)c1cccc([N+](=O)[O-])c1`, the IC50 in [1] is 88.1 µM.

`O=C(C(=S)N1CCOCC1)c1ccc(Br)cc1`: the values for the Ratio IC50 in [3] and in experiment [4] were 2.2 and 2.6, respectively. Further, the results for the IC50 (in the experiment with MDA-MB-231; with HL-60; in [1]) were over 100 µM, over 100 µM and 131 µM, respectively.

As to `O=C(C(=S)N1CCOCC1)c1ccccc1I`, the IC50 in [1] was over 200 µM.

Consider `c1ccc(C2CNCCO2)cc1` (configuration not stated), for which the inhibition in experiment [2] worked out at 61%.

On to `O=C(C(=S)N1CCOCC1)c1cccc(Cl)c1`, for which the IC50 in the experiment on MDA-MB-231 is over 100 µM; in the experiment on HL-60, over 100 µM; in experiment [1], over 200 µM.

Regarding `O=C(C(=S)N1CCOCC1)c1ccc([N+](=O)[O-])cc1`, the Ratio IC50 in experiment [3] is 2.9; in experiment [4], 3. For the same molecule, the IC50 with MDA-MB-231 is over 100 µM; in the experiment with HL-60, over 100 µM; in experiment [1], 35.1 µM.

For `FC(F)(F)c1cc(NC(=S)N2CCN(Cc3ccccc3)CC2)cc(C(F)(F)F)c1`, the inhibition in experiment [2] was found to be 80%.

Regarding `O=C(C(=S)N1CCOCC1)c1cccc(F)c1`, the IC50 in [1] was over 200 µM.

As for `O=C(C(=S)N1CCOCC1)c1ccc(I)cc1`, the Ratio IC50 in experiment [3] and in experiment [4] was 2.8 in each case. The IC50 with MDA-MB-231 is over 100 µM; in the experiment with HL-60 it was over 100 µM; in experiment [1], 178 µM.

As to `O=C(C(=S)N1CCOCC1)c1cccc(Br)c1`, the IC50 in [1] is over 200 µM.

In the case of `S=C(c1ccc(Cl)c(Cl)c1)N1CCOCC1` [(3,4-DICHLOROPHENYL)(MORPHOLINO)METHANETHIONE], in experiment [2], the inhibition turned out to be 96%. The half-maximal inhibitory concentration (IC50) in the experiment on MDA-MB-231 and in the experiment with HL-60 was over 100 µM each time.

In the case of `O=C(Nc1ccccc1[N+](=O)[O-])c1ccc(Cl)cc1`, in experiment [2], the inhibition was determined as 59%. Also, the IC50 in the experiment on MDA-MB-231 is over 100 µM; in the experiment with HL-60, over 100 µM; in experiment [1] it was 75.2 µM.

With `O=C(NC(c1ccccc1)c1ccccc1)c1ccc([N+](=O)[O-])cc1`, the inhibition in experiment [2] was found to be 54%.

As to `O=C(C(=S)N1CCOCC1)c1cccc(I)c1`, the IC50 in experiment [1] is over 200 µM.

On to `O=C1C=CC(=O)N1c1ccccc1Cl`, for which the inhibition in experiment [2] worked out at 78%.

Turning to `Nc1nc2c(s1)CCCC2`, the inhibition in experiment [2] was 46%.

As to `O=C(C(=S)N1CCOCC1)c1ccc(F)cc1`, the values for the Ratio IC50 in [3] and in [4] were 1.5 and over 2.3, respectively. Also, the IC50 with MDA-MB-231 is over 100 µM; with HL-60, over 100 µM; in experiment [1] it was 68.9 µM.

Regarding `O=C1C=CC(=O)c2ccccc21`, in experiment [2], the inhibition worked out at 95%.

As to `O=C(C(=S)N1CCOCC1)c1ccc(-c2ccccc2)cc1`, the IC50 in [1] was over 200 µM.

The term Ki denotes a measure of affinity in units of concentration, obtained from inhibition or displacement. For `O=C(C(=S)N1CCOCC1)c1ccccc1`, the Ki came to 40 µM in experiment [5] and 27 µM in experiment [6]. Besides, in experiment [4], the Ratio IC50 was determined as 9.1. For the same molecule, the results for the IC50 (in the experiment on MDA-MB-231; in the experiment on HL-60; in experiment [1]) were over 100 µM, over 100 µM and 30.9 µM, respectively. Further, in experiment [7], the inhibition entry was “Active”.

Regarding `S=C(NC1CCCCC1)Sc1ccccc1`, the inhibition in [2] worked out at 51%.

Turning to `O=C(C(=S)N1CCOCC1)c1ccc(Cl)cc1`, the Ratio IC50 was found to be 3.3 in [3] and 3.2 in experiment [4]. The IC50 in the experiment on MDA-MB-231 is over 100 µM; with HL-60, over 100 µM; in experiment [1] it was 8.7 µM.

For the molecule `COc1ccc(S(=O)(=O)N2CCNCC2)cc1`, the inhibition in experiment [2] was determined as 35%.

For `O=C(C(=S)N1CCOCC1)c1ccccc1Br`, the IC50 in [1] came to 161 µM.

On to `CCCCCN1C(=O)NC(c2ccccc2)(c2ccccc2)C1=O`, for which, in experiment [2], the inhibition is 25%.

On to `O=C(N1CCN(c2ccccc2)CC1)n1nnc2ccccc21`, for which the inhibition in [2] is 37%.

For `Cc1cc(C)nc(NC(=O)c2ccc([N+](=O)[O-])cc2)n1`, in experiment [2], the inhibition is 13%.

Regarding `O=C(C(=S)N1CCOCC1)c1ccccc1Cl`, the IC50 with MDA-MB-231 is over 100 µM; with HL-60 it was over 100 µM; in [1] it was over 200 µM.

Take `O=C(C(=S)N1CCOCC1)c1ccccc1F`: the IC50 in experiment [1] is over 200 µM.

`O=C1C=CC(=O)C=C1`: the inhibition in [2] was found to be 100%.
